{"source": "patent US20100086931A1", "about": "“METHOD FOR ASSAYING ACTION OF ANTITUMOR AGENT USING DECREASE IN GENE EXPRESSION LEVEL AS INDEX” (Eisai R&D Management Co., Ltd., priority 2007, published 2010)", "tested_on": "peripheral blood mononuclear cells (PBMC)", "test": "qPCR (TaqMan) measurement of mRNA expression in PBMC treated with compound A", "type": "cell-based, human", "settings": "30 nM; untreated cells = 1; corrected by 18S rRNA", "data": [{"smiles": "CCC(O)C(C)C1OC1CC(C)(O)/C=C/C=C(\\C)C1OC(=O)CC(O)CCC(C)(O)C(OC(=O)N2CCN(C3CCCCCC3)CC2)/C=C/C1C", "note": "(stereo not shown) [E7107, (8E,12E,14E)-7-((4-Cycloheptylpiperazin-1-yl)carbonyl)oxy-3,6,16,21-tetrahydroxy-6,10,12,16,20-pentamethyl-18,19-epoxytricosa-8,12,14-trien-11-olide]", "values": [{"measurement": "ZCCHC8 mRNA expression level (qPCR)", "value": 0.13}]}]}
